For the assay, the target named is T1, Cholecystokinin receptor type A (Homo sapiens, UniProt P32238).
T1 sequence (P32238 whole entry): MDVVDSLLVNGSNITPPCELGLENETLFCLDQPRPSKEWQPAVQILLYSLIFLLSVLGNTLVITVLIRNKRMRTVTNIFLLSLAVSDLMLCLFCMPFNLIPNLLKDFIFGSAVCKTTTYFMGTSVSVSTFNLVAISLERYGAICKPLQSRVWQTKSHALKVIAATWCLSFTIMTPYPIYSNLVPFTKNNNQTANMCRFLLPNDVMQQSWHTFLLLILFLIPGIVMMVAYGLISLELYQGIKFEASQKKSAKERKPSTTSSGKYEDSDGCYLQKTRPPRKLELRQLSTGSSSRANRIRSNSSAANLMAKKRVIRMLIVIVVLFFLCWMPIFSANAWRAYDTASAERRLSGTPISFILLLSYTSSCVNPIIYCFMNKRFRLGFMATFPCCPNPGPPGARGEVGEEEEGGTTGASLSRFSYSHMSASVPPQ
Briefly: Displacement of [111In]DTPA-Glu-Gly-[Tyr27(SO3H)]-CCK8 from human CCK1 receptor in A431 cells. The class given is cell-based, A-431.

pIC50: −log10 of the molar value.

The compound `O=C(/C=C/c1ccccc1)Nc1ccccc1C(=O)NC(Cc1ccccc1)C(=O)O` (racemic) gave a pIC50 of 5.40.

`O=C(Nc1ccccc1C(=O)NC(Cc1ccccc1)C(=O)O)c1cc2ccccc2[nH]1` (racemic) had a pIC50 of 6.71.

In turn, `CCCCCN(CCCOC)C(=O)C(CCC(=O)O)NC(=O)c1ccc(Cl)c(Cl)c1` (stereo not given) [LOXIGLUMIDE] gave a pIC50 of 6.71.

`CC(NC(=O)c1ccccc1NC(=O)c1cc2ccccc2[nH]1)C(=O)O` (racemic) had a negative-log IC50 (pIC50) of 5.55. Against the preceding compound, the pIC50 is 1.16 log units lower.

Take `CC(=O)N/C(=C/c1ccccc1)C(=O)Nc1ccccc1C(=O)NC(Cc1ccccc1)C(=O)O` (racemic): the pIC50 was 4.90.

For orientation: pIC50 means the IC50 on a negative log10 scale, so that one unit is a factor of ten. The low end stands for a high IC50, the high end for a low IC50.
